In the NIST ThermoML archive (doi:10.1016/j.jct.2013.09.024):
± gives the expanded uncertainty stated by the source.

Experiment: xn = mol fraction of the nth substance listed
Conditions: Liquid, Vibrating tube method

CC1(C)C(=O)[C@]2(C)CC[C@H]1C2 [(-)-fenchone] + CCO
mass density [kg/m3]
Conditions | 283.15 K | 298.15 K | 313.15 K | 328.15 K
101 kPa, x1 = 0.0481 | 817.48 ± 0.15 | 804.6 ± 0.15 | 791.46 ± 0.15 | 777.95 ± 0.16
101 kPa, x1 = 0.0985 | 834.96 ± 0.13 | 822.02 ± 0.14 | 808.84 ± 0.14 | 795.29 ± 0.14
101 kPa, x1 = 0.2002 | 862.89 ± 0.13 | 849.9 ± 0.13 | 836.65 ± 0.13 | 823.07 ± 0.14
101 kPa, x1 = 0.3002 | 883.74 ± 0.12 | 870.72 ± 0.12 | 857.52 ± 0.12 | 844.02 ± 0.13
101 kPa, x1 = 0.4031 | 900.59 ± 0.11 | 887.59 ± 0.12 | 874.42 ± 0.12 | 861.01 ± 0.12
101 kPa, x1 = 0.5012 | 913.56 ± 0.11 | 900.59 ± 0.11 | 887.46 ± 0.12 | 874.13 ± 0.12
101 kPa, x1 = 0.5976 | 924.09 ± 0.11 | 911.15 ± 0.11 | 898.09 ± 0.12 | 884.87 ± 0.12
101 kPa, x1 = 0.697 | 933.16 ± 0.11 | 920.28 ± 0.11 | 907.3 ± 0.12 | 894.19 ± 0.12
101 kPa, x1 = 0.7897 | 940.31 ± 0.11 | 927.48 ± 0.12 | 914.58 ± 0.12 | 901.6 ± 0.12
101 kPa, x1 = 0.899 | 947.57 ± 0.12 | 934.83 ± 0.12 | 922.06 ± 0.12 | 909.23 ± 0.12
101 kPa, x1 = 0.9486 | 950.46 ± 0.12 | 937.77 ± 0.12 | 925.06 ± 0.12 | 912.33 ± 0.13
101 kPa, x1 = 1 | 953.27 ± 0.12 | 940.67 ± 0.12 | 928.04 ± 0.12 | 915.39 ± 0.13
20000 kPa, x1 = 0.051 | 833.5 ± 1 | 822 ± 1 | 810.1 ± 1 | 798 ± 1
20000 kPa, x1 = 0.0992 | 849.7 ± 1 | 838 ± 1 | 826.1 ± 1 | 813.9 ± 1
20000 kPa, x1 = 0.199 | 876.6 ± 1 | 864.9 ± 1 | 852.8 ± 1 | 840.6 ± 1
20000 kPa, x1 = 0.301 | 897.5 ± 1 | 885.7 ± 1 | 873.6 ± 1 | 861.4 ± 1
20000 kPa, x1 = 0.3968 | 913 ± 1 | 901.1 ± 1 | 889.1 ± 1 | 876.8 ± 1
20000 kPa, x1 = 0.4976 | 926.2 ± 1 | 914.3 ± 1 | 902.4 ± 1 | 890.1 ± 1
20000 kPa, x1 = 0.5924 | 936.5 ± 1 | 924.6 ± 1 | 912.6 ± 1 | 900.5 ± 1
20000 kPa, x1 = 0.6956 | 945.8 ± 1 | 934 ± 1 | 922 ± 1 | 910.1 ± 1
20000 kPa, x1 = 0.7942 | 953.4 ± 1 | 941.6 ± 1 | 929.7 ± 1 | 917.8 ± 1
20000 kPa, x1 = 0.8929 | 959.7 ± 1 | 948.1 ± 1 | 936.3 ± 1 | 924.4 ± 1
20000 kPa, x1 = 0.9454 | 962.8 ± 1 | 951.2 ± 1 | 939.4 ± 1 | 927.7 ± 1
20000 kPa, x1 = 1 | 965.6 ± 1 | 954 ± 1 | 942.3 ± 1 | 930.8 ± 1
25000 kPa, x1 = 0.051 | 837 ± 1 | 825.6 ± 1 | 814 ± 1 | 802.1 ± 1
25000 kPa, x1 = 0.0992 | 853.1 ± 1 | 841.6 ± 1 | 829.9 ± 1 | 818 ± 1
25000 kPa, x1 = 0.199 | 879.9 ± 1 | 868.3 ± 1 | 856.5 ± 1 | 844.6 ± 1
25000 kPa, x1 = 0.301 | 900.6 ± 1 | 889.1 ± 1 | 877.2 ± 1 | 865.3 ± 1
25000 kPa, x1 = 0.3968 | 916.1 ± 1 | 904.4 ± 1 | 892.6 ± 1 | 880.6 ± 1
25000 kPa, x1 = 0.4976 | 929.2 ± 1 | 917.6 ± 1 | 905.9 ± 1 | 893.7 ± 1
25000 kPa, x1 = 0.5924 | 939.4 ± 1 | 927.8 ± 1 | 916 ± 1 | 904.1 ± 1
25000 kPa, x1 = 0.6956 | 948.7 ± 1 | 937.1 ± 1 | 925.3 ± 1 | 913.7 ± 1
25000 kPa, x1 = 0.7942 | 956.3 ± 1 | 944.7 ± 1 | 933 ± 1 | 921.3 ± 1
25000 kPa, x1 = 0.8929 | 962.6 ± 1 | 951.1 ± 1 | 939.6 ± 1 | 927.9 ± 1
25000 kPa, x1 = 0.9454 | 965.7 ± 1 | 954.2 ± 1 | 942.7 ± 1 | 931.2 ± 1
25000 kPa, x1 = 1 | 968.5 ± 1 | 957.1 ± 1 | 945.6 ± 1 | 934.2 ± 1
30000 kPa, x1 = 0.051 | 840.3 ± 1 | 829.1 ± 1 | 817.7 ± 1 | 806.1 ± 1.1
30000 kPa, x1 = 0.0992 | 856.3 ± 1 | 845 ± 1 | 833.6 ± 1 | 821.9 ± 1
30000 kPa, x1 = 0.199 | 883 ± 1 | 871.7 ± 1 | 860 ± 1 | 848.3 ± 1
30000 kPa, x1 = 0.301 | 903.7 ± 1 | 892.3 ± 1 | 880.6 ± 1 | 869 ± 1
30000 kPa, x1 = 0.3968 | 919.1 ± 1 | 907.6 ± 1 | 895.9 ± 1 | 884.2 ± 1
30000 kPa, x1 = 0.4976 | 932.2 ± 1 | 920.7 ± 1 | 909.2 ± 1 | 897.3 ± 1
30000 kPa, x1 = 0.5924 | 942.3 ± 1 | 930.9 ± 1 | 919.2 ± 1 | 907.7 ± 1
30000 kPa, x1 = 0.6956 | 951.6 ± 1 | 940.2 ± 1 | 928.5 ± 1 | 917.2 ± 1
30000 kPa, x1 = 0.7942 | 959.1 ± 1 | 947.7 ± 1 | 936.1 ± 1 | 924.8 ± 1
30000 kPa, x1 = 0.8929 | 965.5 ± 1 | 954.1 ± 1 | 942.7 ± 1 | 931.4 ± 1
30000 kPa, x1 = 0.9454 | 968.5 ± 1 | 957.2 ± 1 | 945.8 ± 1 | 934.5 ± 1
30000 kPa, x1 = 1 | 971.3 ± 1 | 960 ± 1 | 948.7 ± 1 | 937.6 ± 1
35000 kPa, x1 = 0.051 | 843.4 ± 1 | 832.5 ± 1.1 | 821.3 ± 1.1 | 810 ± 1.1
35000 kPa, x1 = 0.0992 | 859.4 ± 1 | 848.3 ± 1 | 837.1 ± 1 | 825.7 ± 1.1
35000 kPa, x1 = 0.199 | 886 ± 1 | 874.8 ± 1 | 863.5 ± 1 | 852 ± 1
35000 kPa, x1 = 0.301 | 906.6 ± 1 | 895.4 ± 1 | 883.9 ± 1 | 872.5 ± 1
35000 kPa, x1 = 0.3968 | 922 ± 1 | 910.6 ± 1 | 899.2 ± 1 | 887.7 ± 1
35000 kPa, x1 = 0.4976 | 935 ± 1 | 923.7 ± 1 | 912.4 ± 1 | 900.8 ± 1
35000 kPa, x1 = 0.5924 | 945.2 ± 1 | 933.9 ± 1 | 922.5 ± 1 | 911.1 ± 1
35000 kPa, x1 = 0.6956 | 954.4 ± 1 | 943.2 ± 1 | 931.7 ± 1 | 920.6 ± 1
35000 kPa, x1 = 0.7942 | 961.9 ± 1 | 950.6 ± 1 | 939.3 ± 1 | 928.1 ± 1
35000 kPa, x1 = 0.8929 | 968.2 ± 1 | 957 ± 1 | 945.8 ± 1 | 934.7 ± 1
35000 kPa, x1 = 0.9454 | 971.2 ± 1 | 960.1 ± 1 | 948.9 ± 1 | 937.8 ± 1
35000 kPa, x1 = 1 | 974 ± 1 | 962.9 ± 1 | 951.8 ± 1 | 940.9 ± 1
40000 kPa, x1 = 0.051 | 846.5 ± 1.1 | 835.7 ± 1.1 | 824.8 ± 1.1 | 813.7 ± 1.1
40000 kPa, x1 = 0.0992 | 862.5 ± 1 | 851.5 ± 1 | 840.5 ± 1.1 | 829.3 ± 1.1
40000 kPa, x1 = 0.199 | 889 ± 1 | 877.9 ± 1 | 866.8 ± 1 | 855.5 ± 1
40000 kPa, x1 = 0.301 | 909.5 ± 1 | 898.4 ± 1 | 887.1 ± 1 | 876 ± 1
40000 kPa, x1 = 0.3968 | 924.8 ± 1 | 913.6 ± 1 | 902.4 ± 1 | 891.1 ± 1
40000 kPa, x1 = 0.4976 | 937.8 ± 1 | 926.7 ± 1 | 915.5 ± 1 | 904.2 ± 1
40000 kPa, x1 = 0.5924 | 947.9 ± 1 | 936.7 ± 1 | 925.5 ± 1 | 914.4 ± 1
40000 kPa, x1 = 0.6956 | 957.1 ± 1 | 946 ± 1 | 934.7 ± 1 | 923.8 ± 1
40000 kPa, x1 = 0.7942 | 964.6 ± 1 | 953.5 ± 1 | 942.3 ± 1 | 931.4 ± 1
40000 kPa, x1 = 0.8929 | 970.9 ± 1 | 959.8 ± 1 | 948.8 ± 1 | 937.8 ± 1
40000 kPa, x1 = 0.9454 | 973.8 ± 1 | 962.9 ± 1 | 951.9 ± 1 | 941 ± 1
40000 kPa, x1 = 1 | 976.6 ± 1 | 965.7 ± 1 | 954.7 ± 1 | 944 ± 1
